{"source": "paper PMC4138023", "about": "“Selective HDAC Inhibition for the Disruption of Latent HIV-1 Infection” (PLoS ONE, 2014)", "experiment_in_all_cases": "microfluidic mobility shift (LabChip), FAM-acetylated peptide substrate", "type_in_all_cases": "biochemical", "key": {"HDAC4": {"target": "T1, HDAC4 (Homo sapiens, UniProt P56524)", "T1 construct": "purified commercial enzyme from BPS Bioscience", "T1 sequence (P56524 627-1084 limits assumed)": "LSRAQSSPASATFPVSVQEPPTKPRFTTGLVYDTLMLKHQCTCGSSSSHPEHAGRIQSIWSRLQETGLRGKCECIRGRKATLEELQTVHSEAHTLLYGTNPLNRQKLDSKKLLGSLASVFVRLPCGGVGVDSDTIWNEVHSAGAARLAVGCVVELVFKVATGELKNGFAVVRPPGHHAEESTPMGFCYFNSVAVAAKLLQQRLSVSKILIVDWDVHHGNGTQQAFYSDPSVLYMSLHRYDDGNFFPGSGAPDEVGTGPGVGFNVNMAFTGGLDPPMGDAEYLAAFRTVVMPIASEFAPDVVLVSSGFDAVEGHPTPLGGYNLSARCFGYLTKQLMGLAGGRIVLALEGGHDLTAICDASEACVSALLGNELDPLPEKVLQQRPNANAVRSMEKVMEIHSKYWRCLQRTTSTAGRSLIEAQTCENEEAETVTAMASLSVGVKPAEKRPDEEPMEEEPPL", "conditions": "read-out: HDAC IC50 (μM) without preincubation / HDAC4", "excerpt": "microfluidic mobility shift (LabChip), FAM-acetylated peptide substrate on HDAC4"}, "HDAC6": {"target": "T2, HDAC6 (Homo sapiens, UniProt Q9UBN7)", "T2 construct": "purified commercial enzyme from BPS Bioscience", "T2 sequence (Q9UBN7 1-1215)": "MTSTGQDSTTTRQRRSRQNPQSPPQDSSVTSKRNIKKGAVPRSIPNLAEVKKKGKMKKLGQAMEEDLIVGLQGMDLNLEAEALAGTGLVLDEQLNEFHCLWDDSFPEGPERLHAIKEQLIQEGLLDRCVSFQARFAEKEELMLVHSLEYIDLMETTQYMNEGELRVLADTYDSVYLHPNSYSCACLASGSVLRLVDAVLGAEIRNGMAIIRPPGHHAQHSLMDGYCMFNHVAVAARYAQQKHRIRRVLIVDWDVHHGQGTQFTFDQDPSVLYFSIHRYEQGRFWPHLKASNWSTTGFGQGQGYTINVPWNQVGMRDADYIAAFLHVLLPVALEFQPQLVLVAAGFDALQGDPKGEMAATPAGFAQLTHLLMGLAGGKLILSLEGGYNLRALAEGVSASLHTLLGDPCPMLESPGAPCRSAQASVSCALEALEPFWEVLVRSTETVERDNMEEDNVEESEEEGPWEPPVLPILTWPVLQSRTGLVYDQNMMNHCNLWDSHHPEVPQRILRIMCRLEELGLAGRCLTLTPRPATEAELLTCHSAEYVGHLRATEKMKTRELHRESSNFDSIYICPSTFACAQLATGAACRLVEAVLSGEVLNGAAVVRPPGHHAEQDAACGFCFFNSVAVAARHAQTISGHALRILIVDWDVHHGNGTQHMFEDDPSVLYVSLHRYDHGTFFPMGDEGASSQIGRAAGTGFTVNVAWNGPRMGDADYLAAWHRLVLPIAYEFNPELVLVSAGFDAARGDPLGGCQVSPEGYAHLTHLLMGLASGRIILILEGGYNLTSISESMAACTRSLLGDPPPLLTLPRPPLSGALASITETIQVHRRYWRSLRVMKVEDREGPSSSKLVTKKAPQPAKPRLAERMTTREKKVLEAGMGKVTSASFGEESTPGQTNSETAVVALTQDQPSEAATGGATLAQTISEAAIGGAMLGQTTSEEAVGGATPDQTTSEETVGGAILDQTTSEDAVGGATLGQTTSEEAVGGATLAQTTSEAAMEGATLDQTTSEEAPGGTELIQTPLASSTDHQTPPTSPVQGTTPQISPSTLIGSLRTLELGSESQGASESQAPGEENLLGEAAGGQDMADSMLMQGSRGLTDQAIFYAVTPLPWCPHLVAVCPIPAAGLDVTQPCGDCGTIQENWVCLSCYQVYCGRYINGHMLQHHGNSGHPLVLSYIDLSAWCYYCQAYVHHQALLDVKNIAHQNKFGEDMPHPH", "conditions": "read-out: HDAC IC50 (μM) without preincubation / HDAC4", "excerpt": "microfluidic mobility shift (LabChip), FAM-acetylated peptide substrate on HDAC6"}, "HDAC7": {"target": "T3, HDAC7 (Homo sapiens, UniProt Q8WUI4)", "T3 construct": "purified commercial enzyme from BPS Bioscience", "T3 sequence (Q8WUI4 518-952 limits assumed)": "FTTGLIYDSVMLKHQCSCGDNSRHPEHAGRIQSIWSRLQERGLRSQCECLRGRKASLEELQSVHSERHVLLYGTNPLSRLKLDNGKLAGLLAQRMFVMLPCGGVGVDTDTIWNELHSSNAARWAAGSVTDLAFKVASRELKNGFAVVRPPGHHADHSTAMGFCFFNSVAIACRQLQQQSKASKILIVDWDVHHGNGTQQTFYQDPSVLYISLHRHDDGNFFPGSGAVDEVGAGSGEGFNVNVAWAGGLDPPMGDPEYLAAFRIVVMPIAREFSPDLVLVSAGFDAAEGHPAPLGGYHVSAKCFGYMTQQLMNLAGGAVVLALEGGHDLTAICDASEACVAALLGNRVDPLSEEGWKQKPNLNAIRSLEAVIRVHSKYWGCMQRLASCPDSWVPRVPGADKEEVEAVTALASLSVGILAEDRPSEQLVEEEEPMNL", "conditions": "read-out: HDAC IC50 (μM) without preincubation / HDAC4", "excerpt": "microfluidic mobility shift (LabChip), FAM-acetylated peptide substrate on HDAC7"}, "HDAC2": {"target": "T4, HDAC2 (Homo sapiens, UniProt Q92769)", "T4 construct": "purified commercial enzyme from BPS Bioscience", "T4 sequence (Q92769 whole entry)": "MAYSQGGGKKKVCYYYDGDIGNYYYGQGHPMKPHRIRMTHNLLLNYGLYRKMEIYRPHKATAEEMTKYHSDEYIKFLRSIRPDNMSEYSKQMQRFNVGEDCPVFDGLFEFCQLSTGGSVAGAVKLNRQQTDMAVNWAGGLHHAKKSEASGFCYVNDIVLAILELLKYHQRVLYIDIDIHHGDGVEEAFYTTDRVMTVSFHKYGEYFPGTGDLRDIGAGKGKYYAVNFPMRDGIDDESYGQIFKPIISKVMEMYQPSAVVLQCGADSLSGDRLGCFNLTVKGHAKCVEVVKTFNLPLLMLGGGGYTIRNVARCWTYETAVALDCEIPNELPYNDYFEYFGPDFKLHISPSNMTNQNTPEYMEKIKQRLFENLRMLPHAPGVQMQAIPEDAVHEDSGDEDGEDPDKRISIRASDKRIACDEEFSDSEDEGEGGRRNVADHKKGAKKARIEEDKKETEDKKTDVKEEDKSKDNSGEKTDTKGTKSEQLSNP", "conditions": "without preincubation; […] min, room temperature, pH […] substrate; read-out: HDAC IC50 (μM) without preincubation / HDAC2", "excerpt": "microfluidic mobility shift (LabChip), FAM-acetylated peptide substrate on HDAC2"}, "HDAC3": {"target": "T5, HDAC3 (Homo sapiens, UniProt O15379)", "T5 construct": "purified commercial enzyme from BPS Bioscience; with Nuclear receptor corepressor 2", "T5 sequence (O15379 whole entry)": "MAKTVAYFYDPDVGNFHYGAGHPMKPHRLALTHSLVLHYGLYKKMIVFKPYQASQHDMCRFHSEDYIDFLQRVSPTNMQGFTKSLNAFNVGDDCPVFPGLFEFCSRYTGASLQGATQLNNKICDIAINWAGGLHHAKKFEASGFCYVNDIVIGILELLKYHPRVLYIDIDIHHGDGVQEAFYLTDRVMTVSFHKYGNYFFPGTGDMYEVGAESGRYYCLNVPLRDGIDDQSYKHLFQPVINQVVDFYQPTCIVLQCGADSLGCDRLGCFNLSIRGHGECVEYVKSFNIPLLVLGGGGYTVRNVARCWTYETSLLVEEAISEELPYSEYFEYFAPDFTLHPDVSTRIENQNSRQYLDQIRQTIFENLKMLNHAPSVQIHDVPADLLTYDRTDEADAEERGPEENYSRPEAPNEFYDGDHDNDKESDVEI", "T5 sequence (Q9Y618 whole entry partner)": "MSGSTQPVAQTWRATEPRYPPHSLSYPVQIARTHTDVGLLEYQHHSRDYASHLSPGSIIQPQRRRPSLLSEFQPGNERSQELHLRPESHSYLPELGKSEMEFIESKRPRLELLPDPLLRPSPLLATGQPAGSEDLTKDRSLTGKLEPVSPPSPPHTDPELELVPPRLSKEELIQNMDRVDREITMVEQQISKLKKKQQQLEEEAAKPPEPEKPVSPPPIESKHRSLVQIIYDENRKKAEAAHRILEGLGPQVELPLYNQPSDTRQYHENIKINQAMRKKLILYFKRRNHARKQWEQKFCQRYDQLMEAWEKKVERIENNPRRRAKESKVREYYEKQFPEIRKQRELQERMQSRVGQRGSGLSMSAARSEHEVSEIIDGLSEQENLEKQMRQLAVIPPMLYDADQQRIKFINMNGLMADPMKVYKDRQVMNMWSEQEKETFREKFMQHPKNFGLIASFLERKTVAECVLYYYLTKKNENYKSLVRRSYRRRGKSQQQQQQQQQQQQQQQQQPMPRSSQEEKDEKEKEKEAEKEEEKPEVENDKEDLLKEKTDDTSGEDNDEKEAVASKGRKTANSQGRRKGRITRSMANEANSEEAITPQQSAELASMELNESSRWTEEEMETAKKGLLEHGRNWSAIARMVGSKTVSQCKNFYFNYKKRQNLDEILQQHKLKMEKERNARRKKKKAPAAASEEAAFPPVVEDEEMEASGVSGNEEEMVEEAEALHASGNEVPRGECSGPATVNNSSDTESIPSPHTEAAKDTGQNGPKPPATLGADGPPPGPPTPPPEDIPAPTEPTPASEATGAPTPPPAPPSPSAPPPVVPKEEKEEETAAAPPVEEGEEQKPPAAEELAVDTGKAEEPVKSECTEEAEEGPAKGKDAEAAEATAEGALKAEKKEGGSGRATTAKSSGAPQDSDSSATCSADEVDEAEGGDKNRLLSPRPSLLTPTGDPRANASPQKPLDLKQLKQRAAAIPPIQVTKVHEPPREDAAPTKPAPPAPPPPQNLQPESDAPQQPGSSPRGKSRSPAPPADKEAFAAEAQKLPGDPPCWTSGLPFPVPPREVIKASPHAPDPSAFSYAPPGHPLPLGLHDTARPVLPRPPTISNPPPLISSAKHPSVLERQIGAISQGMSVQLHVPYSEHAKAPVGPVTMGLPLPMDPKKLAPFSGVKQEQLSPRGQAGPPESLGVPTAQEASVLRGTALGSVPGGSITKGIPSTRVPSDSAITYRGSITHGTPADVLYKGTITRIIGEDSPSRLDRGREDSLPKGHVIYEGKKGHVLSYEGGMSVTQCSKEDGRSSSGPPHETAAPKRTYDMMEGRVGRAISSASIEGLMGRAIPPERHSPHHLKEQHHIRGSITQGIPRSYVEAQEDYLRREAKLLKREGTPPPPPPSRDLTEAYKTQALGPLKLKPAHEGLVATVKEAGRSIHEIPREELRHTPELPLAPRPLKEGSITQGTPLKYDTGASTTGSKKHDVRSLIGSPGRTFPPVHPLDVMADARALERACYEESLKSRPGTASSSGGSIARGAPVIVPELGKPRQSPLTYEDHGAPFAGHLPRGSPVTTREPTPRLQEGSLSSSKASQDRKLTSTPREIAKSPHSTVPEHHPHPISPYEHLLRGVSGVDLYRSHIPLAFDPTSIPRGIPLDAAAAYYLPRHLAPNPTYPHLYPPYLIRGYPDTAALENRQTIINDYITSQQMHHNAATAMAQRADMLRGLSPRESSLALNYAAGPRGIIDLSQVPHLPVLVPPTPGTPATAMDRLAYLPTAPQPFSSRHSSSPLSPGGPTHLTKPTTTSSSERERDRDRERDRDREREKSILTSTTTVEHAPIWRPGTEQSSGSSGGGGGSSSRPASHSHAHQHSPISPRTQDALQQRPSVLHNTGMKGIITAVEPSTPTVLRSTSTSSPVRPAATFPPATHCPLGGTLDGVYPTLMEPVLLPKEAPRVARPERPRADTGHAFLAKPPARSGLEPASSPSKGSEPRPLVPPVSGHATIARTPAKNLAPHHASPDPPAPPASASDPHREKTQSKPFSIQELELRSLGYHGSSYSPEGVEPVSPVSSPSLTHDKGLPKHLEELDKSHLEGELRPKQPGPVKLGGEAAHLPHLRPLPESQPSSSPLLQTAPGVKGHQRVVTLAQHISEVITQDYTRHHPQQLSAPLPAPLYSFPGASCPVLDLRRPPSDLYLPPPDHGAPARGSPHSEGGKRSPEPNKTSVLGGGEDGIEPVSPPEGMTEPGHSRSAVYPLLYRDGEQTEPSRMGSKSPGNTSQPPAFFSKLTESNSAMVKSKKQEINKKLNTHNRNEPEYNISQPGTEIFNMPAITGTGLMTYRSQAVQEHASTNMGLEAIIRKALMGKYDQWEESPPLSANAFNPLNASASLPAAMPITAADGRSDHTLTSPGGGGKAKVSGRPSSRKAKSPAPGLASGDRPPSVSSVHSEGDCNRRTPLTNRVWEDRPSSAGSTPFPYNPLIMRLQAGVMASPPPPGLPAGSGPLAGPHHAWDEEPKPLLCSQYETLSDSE", "conditions": "without preincubation; […] min, room temperature, pH […] substrate; read-out: HDAC IC50 (μM) without preincubation / HDAC3", "excerpt": "microfluidic mobility shift (LabChip), FAM-acetylated peptide substrate on HDAC3"}, "HDAC9": {"target": "T6, HDAC9 (Homo sapiens, UniProt Q9UKV0)", "T6 construct": "purified commercial enzyme from BPS Bioscience", "conditions": "read-out: HDAC IC50 (μM) without preincubation / HDAC9", "excerpt": "microfluidic mobility shift (LabChip), FAM-acetylated peptide substrate on HDAC9"}, "HDAC1": {"target": "T7, HDAC1 (Homo sapiens, UniProt Q13547)", "T7 construct": "purified commercial enzyme from BPS Bioscience", "conditions": "without preincubation; […] min, room temperature, pH […] substrate; read-out: HDAC IC50 (μM) without preincubation / HDAC1", "excerpt": "microfluidic mobility shift (LabChip), FAM-acetylated peptide substrate on HDAC1"}, "HDAC5": {"target": "T8, HDAC5 (Homo sapiens, UniProt Q9UQL6)", "T8 construct": "purified commercial enzyme from BPS Bioscience", "T8 sequence (Q9UQL6 whole entry)": "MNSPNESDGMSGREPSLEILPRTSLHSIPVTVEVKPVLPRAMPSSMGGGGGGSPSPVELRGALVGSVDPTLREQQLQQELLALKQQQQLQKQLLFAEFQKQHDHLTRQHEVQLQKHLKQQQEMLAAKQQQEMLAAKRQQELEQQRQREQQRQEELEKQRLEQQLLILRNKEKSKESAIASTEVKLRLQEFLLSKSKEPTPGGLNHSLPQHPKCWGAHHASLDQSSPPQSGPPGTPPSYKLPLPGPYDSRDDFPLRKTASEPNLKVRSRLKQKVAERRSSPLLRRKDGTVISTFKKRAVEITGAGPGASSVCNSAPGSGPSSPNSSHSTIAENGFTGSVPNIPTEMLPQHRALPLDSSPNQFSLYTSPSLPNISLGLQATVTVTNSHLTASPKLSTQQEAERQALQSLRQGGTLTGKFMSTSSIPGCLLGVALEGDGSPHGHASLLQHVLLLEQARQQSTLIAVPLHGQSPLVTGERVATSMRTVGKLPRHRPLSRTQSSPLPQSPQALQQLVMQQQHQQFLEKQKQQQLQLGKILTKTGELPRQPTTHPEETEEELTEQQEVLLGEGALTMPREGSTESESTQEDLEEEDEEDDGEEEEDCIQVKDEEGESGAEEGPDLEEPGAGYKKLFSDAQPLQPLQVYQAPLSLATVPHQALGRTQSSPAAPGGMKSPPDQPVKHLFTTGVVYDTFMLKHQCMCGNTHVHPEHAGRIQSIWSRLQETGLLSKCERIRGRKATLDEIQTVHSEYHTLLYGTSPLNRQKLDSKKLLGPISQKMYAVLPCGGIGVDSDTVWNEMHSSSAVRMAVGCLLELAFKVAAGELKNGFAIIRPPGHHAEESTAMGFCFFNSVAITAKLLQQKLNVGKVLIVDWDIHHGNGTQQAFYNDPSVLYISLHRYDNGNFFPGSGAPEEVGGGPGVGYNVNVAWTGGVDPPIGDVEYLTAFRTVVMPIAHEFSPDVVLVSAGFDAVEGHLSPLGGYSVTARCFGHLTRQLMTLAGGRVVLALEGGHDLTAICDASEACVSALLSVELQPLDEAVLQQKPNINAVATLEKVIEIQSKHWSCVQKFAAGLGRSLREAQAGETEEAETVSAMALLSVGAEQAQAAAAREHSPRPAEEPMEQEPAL", "conditions": "read-out: HDAC IC50 (μM) without preincubation / HDAC5", "excerpt": "microfluidic mobility shift (LabChip), FAM-acetylated peptide substrate on HDAC5"}, "HDAC8": {"target": "T9, HDAC8 (Homo sapiens, UniProt Q9BY41)", "T9 construct": "purified commercial enzyme from BPS Bioscience", "T9 sequence (Q9BY41 1-377)": "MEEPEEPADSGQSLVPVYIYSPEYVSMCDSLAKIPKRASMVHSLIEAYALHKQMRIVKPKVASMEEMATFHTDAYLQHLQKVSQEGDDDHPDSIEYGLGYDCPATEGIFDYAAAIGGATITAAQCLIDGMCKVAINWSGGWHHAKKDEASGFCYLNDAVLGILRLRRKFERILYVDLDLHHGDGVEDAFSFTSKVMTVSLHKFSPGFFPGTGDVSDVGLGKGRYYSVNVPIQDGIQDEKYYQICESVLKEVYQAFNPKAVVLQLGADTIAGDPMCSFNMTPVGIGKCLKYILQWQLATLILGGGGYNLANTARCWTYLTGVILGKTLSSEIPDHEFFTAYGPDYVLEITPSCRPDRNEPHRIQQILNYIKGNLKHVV", "conditions": "read-out: HDAC IC50 (μM) without preincubation / HDAC4", "excerpt": "microfluidic mobility shift (LabChip), FAM-acetylated peptide substrate on HDAC8"}}, "data": [{"smiles": "CC(=O)Nc1ccc(C(=O)Nc2ccc(F)cc2N)cc1", "note": "[BRD3308]", "values": [{"measurement": "IC50", "setting": "HDAC4", "value": "> 33", "unit": "µM"}, {"measurement": "IC50", "setting": "HDAC6", "value": "> 33", "unit": "µM"}, {"measurement": "IC50", "setting": "HDAC7", "value": "> 33", "unit": "µM"}, {"measurement": "IC50", "setting": "HDAC2", "value": 1.34, "unit": "µM"}, {"measurement": "IC50", "setting": "HDAC3", "value": 0.054, "unit": "µM"}, {"measurement": "IC50", "setting": "HDAC9", "value": "> 33", "unit": "µM"}, {"measurement": "IC50", "setting": "HDAC1", "value": 1.26, "unit": "µM"}, {"measurement": "IC50", "setting": "HDAC5", "value": "> 33", "unit": "µM"}, {"measurement": "IC50", "setting": "HDAC8", "value": "> 33", "unit": "µM"}]}]}
